Key:
CDK9/Cyclin K = CDK9/Cyclin K (Homo sapiens, UniProt P50750); experiment: Inhibition of CDK9/Cyclin K kinase activity (ADP-Glo); assay type: biochemical; details: mean value from several measurements; read-out: IC50 CDK9/Cyclin K
Description: (§1) Measurements were carried out in a 5 μl reaction volume using a 384-well plate (Corning Inc., order no. 4513). The analyzed substances were titrated from 50 μM in increments of 4 at 11 concentration points in a normal strength kinase buffer A (Thermo Fisher Scientific Inc, cat. no. PV3189) supplemented with DTT (Sigma, orde. no. 646563-10X.5ML) and prepared with water (Panreac, order no. 701074). Kinase was diluted in an analogous buffer, mixed with test compounds in plate wells and preincubated for 10 minutes at 25° C. Following incubation, a mixture of reaction substrate (CDKtide (SignalChem, order no. C06-58) or Histone H1 (SignalChem, order no. H10-54N) or PDKtide (SignalChem, order no. P10-58) and ATP (SignalChem, order no. V915B) prepared on a normal strength kinase buffer A was added. 1% solution of dimethyl sulfoxide (DMSO) (Sigma-Aldrich, order no. D2438) in the reaction volume was used as a negative control. The final concentrations of all reaction components are shown in Table 5. The plate was centrifuged at 400 rcf (Eppendorf, 5804 R) for 1 minute and incubated for 40-60 minutes at 25° C. The amount of ATP consumed in the kinase reaction was then measured using the ADP-Glo™ detection system. Luminescence signal was measured using Spark 20M tablet multifunction reader (Tecan Group Ltd, Switzerland). IC50 value was calculated using Magellan 7.2 (Tecan Group Ltd, Switzerland) by approximating experimental points by four-parameter model with the optimization by Levenberg-Marquardt:
(§2) [formula] • where A is the upper asymptote; D is the lower asymptote; C is IC50, half-maximal inhibitory concentration of kinase, nM; B is the curvature (slope).

CDK7/Cyclin H/MNAT1 = CDK7/Cyclin H/MNAT1 (Homo sapiens, UniProt P50613); experiment: Inhibition of CDK7/Cyclin H/MNAT1 kinase activity (ADP-Glo); assay type: biochemical; details: mean value from several measurements; read-out: IC50 CDK7/Cyclin H/MNAT
Description: as §1, §2

CDK2/Cyclin A = CDK2/Cyclin A (Homo sapiens, UniProt P24941); experiment: Inhibition of CDK2/Cyclin A kinase activity (ADP-Glo); assay type: biochemical; details: mean value from several measurements; read-out: IC50 CDK2/Cyclin A
Description: as §1, §2

[1] = General cytotoxicity on primary differentiated HepaRG cells (72 h); assay type: cell-based; details: human, general toxicity, mean value from several measurements
Text: General cytotoxicity of CDK7 inhibitors according to the present invention was investigated using primary differentiated HepaRG cells (Biopredic Int, order no. HPR101). A week before the measurement, the cells were thawed and maintained in Basal hepatic cell medium (Biopredic Int, order no. MIL700079) supplemented with HepaRG maintenance/metabolism medium supplement with antibiotics (Biopredic Int, order no. ADD620C). The medium in vials with cells was changed every 2-3 days. The night before the test, the cells were plated in wells of 96-well plates (Corning Inc., order no. 3599) at 25×10^3 cells in 100 μl of medium per well. The next day, test compounds were introduced into plate wells with cells, untitrated at a concentration ranging from 200 μM to 0.2 nM, and incubated for 72 hours. Cell viability was assessed as described above.

[2] = test system: MDA-MB-468 (triple negative breast cancer); experiment: Antiproliferative assay on MDA-MB-468 cells (AlamarBlue, 96 h); assay type: cell-based; details: Homo sapiens, mean value from several measurements
Description: The antiproliferative activity of CDK7 inhibitors according to the present invention was evaluated in a cell test using continuous cell cultures: MDA-MB-468 (triple negative breast cancer, ATCC® HTB-132™) and NCl-H82 (small cell lung cancer, ATCC® HTB-175™) using a viable AlamarBlue dye (Thermo Fisher Scientific Inc, order no. DAL1100). The cells were grown in DMEM (PanEco, order no. C330π) and RPMI-1640 (PanEco, order no. C330π), respectively. The basal growth medium was enriched with L-glutamine at a concentration of 2 mM (PanEco, order no. Φ032) and 10% fetal bovine serum (Gibco, order no. 16140-071). The night before measurement, MDA-MB-468 adherent cells were detached from plastic with a solution of trypsin-EDTA (PanEco, order no. Π039π), the solution was then inactivated by a DMEM complete medium, centrifuged at 1000 RPM (Eppendorf, 5804 R), a suspension of cells was prepared in a DMEM complete medium, introduced into 96-well culture plates (Corning Inc, order no. 3599) at 8×10^3 cells in 100 μl of medium per well. The next day, test compounds were dissolved in DMSO and diluted with a DMEM complete medium to a final concentration ranging from 50 μM to 10 pM. Diluted compounds in a volume of 50 μl were introduced into the plate wells with cells in triplicates (the final concentration of DMSO was no more than 1%) and incubated at 37° C. in an incubator with 5% CO2 for 96 hours. NCl-H82 suspension cell line was prepared on the day of the analysis. 10×10^3 cells in 100 μl of an RPMI-1640 complete medium were added to each well of a 96-well plate. The procedure for sample dilution is as described above. Cells with test compounds were incubated at 37° C. in an incubator with 5% CO2 for 120 hours. Following incubation, […] of AlamarBlue reagent (Thermo Fisher Scientific Inc., order no. DAL1100) was added to the wells, the contents of the plates were stirred in an orbital shaker (Biosan, Latvia), then further incubated for 5.5-6 hours at 37° C. in an incubator with 5% CO2. The number of viable cells was detected using the Infinite M200Pro microplate spectrophotometer (Tecan Group Ltd, Switzerland) by way of measuring a fluorescent signal at an excitation wavelength (λEx) of 540 nm and an emission wavelength (λEm) of 590 nm.
IC50 value was calculated using the Magellan software (Tecan Group Ltd, Switzerland) by approximating experimental points by four-parameter model with the optimization by Levenberg-Marquardt: […]

Sequence of CDK9/Cyclin K (P50750 whole entry): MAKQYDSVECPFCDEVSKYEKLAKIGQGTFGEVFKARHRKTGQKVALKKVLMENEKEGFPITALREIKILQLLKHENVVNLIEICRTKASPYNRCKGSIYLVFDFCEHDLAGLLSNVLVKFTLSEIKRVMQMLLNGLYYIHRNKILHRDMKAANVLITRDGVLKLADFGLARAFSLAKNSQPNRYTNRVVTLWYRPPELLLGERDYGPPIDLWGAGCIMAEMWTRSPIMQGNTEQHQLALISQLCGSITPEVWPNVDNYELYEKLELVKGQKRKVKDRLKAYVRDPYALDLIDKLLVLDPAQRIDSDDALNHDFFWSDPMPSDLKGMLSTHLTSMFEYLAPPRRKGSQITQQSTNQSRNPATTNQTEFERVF
Sequence of CDK9/Cyclin K (O75909 whole entry partner): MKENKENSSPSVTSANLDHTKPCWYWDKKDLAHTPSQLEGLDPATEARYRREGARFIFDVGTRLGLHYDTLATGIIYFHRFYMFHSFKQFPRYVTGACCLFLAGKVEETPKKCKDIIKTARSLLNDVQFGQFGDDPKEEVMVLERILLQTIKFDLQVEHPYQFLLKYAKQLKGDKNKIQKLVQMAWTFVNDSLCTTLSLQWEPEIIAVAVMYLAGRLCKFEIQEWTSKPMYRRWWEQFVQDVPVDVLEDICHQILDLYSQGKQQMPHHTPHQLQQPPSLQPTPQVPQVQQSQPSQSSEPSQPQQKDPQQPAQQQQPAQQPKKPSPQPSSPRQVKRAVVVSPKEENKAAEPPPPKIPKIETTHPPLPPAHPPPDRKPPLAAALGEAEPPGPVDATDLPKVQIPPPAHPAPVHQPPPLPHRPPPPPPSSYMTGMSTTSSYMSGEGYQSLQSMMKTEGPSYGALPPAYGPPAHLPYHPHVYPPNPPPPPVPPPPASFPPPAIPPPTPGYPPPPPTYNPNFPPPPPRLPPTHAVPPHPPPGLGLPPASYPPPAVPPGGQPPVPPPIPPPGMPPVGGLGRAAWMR
Sequence of CDK7/Cyclin H/MNAT1 (P50613 whole entry): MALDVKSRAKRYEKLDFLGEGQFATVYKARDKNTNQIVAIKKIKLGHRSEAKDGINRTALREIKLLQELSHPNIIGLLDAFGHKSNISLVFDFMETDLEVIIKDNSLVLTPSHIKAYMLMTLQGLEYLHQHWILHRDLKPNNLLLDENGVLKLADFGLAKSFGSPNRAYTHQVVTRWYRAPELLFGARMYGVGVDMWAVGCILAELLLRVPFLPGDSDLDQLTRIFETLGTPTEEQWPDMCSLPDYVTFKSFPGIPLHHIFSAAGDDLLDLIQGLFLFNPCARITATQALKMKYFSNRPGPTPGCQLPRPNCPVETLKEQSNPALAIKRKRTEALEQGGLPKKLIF
Sequence of CDK7/Cyclin H/MNAT1 (P51946 whole entry partner): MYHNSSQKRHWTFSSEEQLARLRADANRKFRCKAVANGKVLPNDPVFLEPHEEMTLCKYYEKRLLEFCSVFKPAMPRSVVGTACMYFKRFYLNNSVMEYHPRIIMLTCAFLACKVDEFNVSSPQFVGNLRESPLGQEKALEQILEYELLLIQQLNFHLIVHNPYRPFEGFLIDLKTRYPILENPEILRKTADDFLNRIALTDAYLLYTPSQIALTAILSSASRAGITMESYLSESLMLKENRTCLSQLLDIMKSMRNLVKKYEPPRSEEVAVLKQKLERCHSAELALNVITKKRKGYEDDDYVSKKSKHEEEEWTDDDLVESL
Sequence of CDK7/Cyclin H/MNAT1 (P51948 whole entry partner): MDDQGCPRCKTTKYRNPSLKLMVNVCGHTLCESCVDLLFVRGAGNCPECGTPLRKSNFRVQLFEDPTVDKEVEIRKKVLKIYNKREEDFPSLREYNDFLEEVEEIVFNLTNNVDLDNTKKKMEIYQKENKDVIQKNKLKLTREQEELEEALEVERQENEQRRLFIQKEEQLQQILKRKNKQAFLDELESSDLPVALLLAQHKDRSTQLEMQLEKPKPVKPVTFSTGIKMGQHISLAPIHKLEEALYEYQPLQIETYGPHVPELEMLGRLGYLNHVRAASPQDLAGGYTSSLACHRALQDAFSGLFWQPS

| IC50 (CDK9/Cyclin K) | IC50 (CDK7/Cyclin H/MNAT1) | IC50 (CDK2/Cyclin A) | IC50 [2] | SMILES | CC50 at 72 h [1] |
| --- | --- | --- | --- | --- | --- |
| > 200 nM | 5 to 50 nM | > 200 nM |  | CN1CCc2c(-c3nc(N[C@H]4CCCNC4)ncc3C(F)(F)F)c[nH]c2C1=O [CDK7_843, 6-methyl-3-(2-{[(3S)-piperidin-3-yl]amino}-5-(trifluoromethyl)pyrimidin-4-yl)-1H,4H,5H,6H, 7H-pyrrolo[2,3-c]pyridin-7-one] |  |
| 5 to 50 nM | 5 to 50 nM | > 200 nM | 10 to 100 nM | CNC(=O)c1cc(-c2nc(N[C@H]3CCCNC3)ncc2C(F)(F)F)c[nH]1 [CDK7_846, N-methyl-4-(2-{[(3S)-piperidin-3-yl]amino}-5-(trifluoromethyl)pyrimidin-4-yl)-1H-pyrrole-2-carboxamide] | 500 to 2000 nM |
| 5 to 50 nM | 5 to 50 nM | > 200 nM | 100 to 1000 nM | NC(=O)c1cc(-c2nc(N[C@H]3CCCNC3)ncc2C(F)(F)F)c[nH]1 [CDK7_537, 4-(2-{[(3S)-piperidin-3-yl]amino}-5-(trifluoromethyl)pyrimidin-4-yl)-1H-pyrrole-2-carboxamide] | 100 to 500 nM |
|  | > 200 nM |  |  | CN(C)C(=O)c1c[nH]cc1-c1nc(N[C@H]2CCCNC2)ncc1C(F)(F)F [CDK7_991, N,N-dimethyl-4-(2-{[(3S)-piperidin-3-yl]amino}-5-(trifluoromethyl)py-rimidin-4-yl)-1H-pyrrole-3-carboxamide] |  |
|  | 5 to 50 nM | > 200 nM | 100 to 1000 nM | CC(=O)Nc1ccccc1Nc1nc(N[C@H]2CCCNC2)ncc1C(F)(F)F [CDK7_898, N-{2-[(2-{[(3S)-piperidin-3-yl]amino}-5-(trifluoromethyl)pyrimidin-4-yl)amino]phenyl} acetamide] | > 2000 nM |
|  | 50 to 200 nM | > 200 nM | > 1000 nM | Nc1ccccc1Nc1nc(N[C@H]2CCCNC2)ncc1C(F)(F)F [CDK7_550, N4-(2-aminophenyl)-N2-[(3S)-piperidin-3-yl]-5-(trifluoromethyl) pyrimidine-2,4-diamine] | > 2000 nM |
| > 200 nM | 5 to 50 nM | > 200 nM |  | CN1CCC[C@H](Nc2ncc(C(F)(F)F)c(-c3c[nH]c(C(=O)N(C)C)c3)n2)C1 [CDK7_1019] | > 2000 nM |
|  | 5 to 50 nM |  |  | O=c1[nH]cc(-c2nc(N[C@H]3CCCNC3)ncc2C(F)(F)F)c2ccccc12 [CDK7_921, 4-(2-{[(3S)-piperidin-3-yl]amino}-5-(trifluoromethyl)pyrimidin-4-yl)-1,2-dihydroisoquin-olin-1-one] |  |

The next lines start with the molecule.

| SMILES | IC50 (CDK9/Cyclin K) | IC50 (CDK7/Cyclin H/MNAT1) | IC50 (CDK2/Cyclin A) | IC50 [2] | CC50 at 72 h [1] |
| --- | --- | --- | --- | --- | --- |
| Cn1c(-c2cc(-c3nc(N[C@H]4CCCNC4)ncc3C(F)(F)F)c[nH]2)nc2ccccc21 [CDK7_1124, 4-[5-(1-methyl-1H-1,3-benzodiazol-2-yl)-1H-pyrrol-3-yl]-N-[(3S)-piperidin-3-yl]-5-(trifluoromethyl)py-rimidin-2-amine] | > 200 nM | 5 to 50 nM | > 200 nM |  | > 2000 nM |
| O=C1CN(c2nc(N[C@H]3CCCNC3)ncc2C(F)(F)F)c2ccccc2N1 [CDK7_900, 4-(2-{[(3S)-piperidin-3-yl]amino}-5-(trifluoromethyl)pyrimidin-4-yl)-1,2,3,4-tetrahydroquin-oxazolin-2-one] |  |  |  |  | > 2000 nM |
| FC(F)(F)c1cnc(N[C@H]2CCCNC2)nc1-n1ccc2ccccc21 [CDK7_809, 4-(1H-indol-1-yl)-N-[(3S)-piperidin-3-yl]-5-(trifluoromethyl)py-rimidin-2-amine] |  | 5 to 50 nM | > 200 nM | > 1000 nM | > 2000 nM |
| FC(F)(F)c1cnc(N[C@H]2CCCNC2)nc1Oc1ccccc1 [CDK7_754, 4-phenoxy-N-[(3S)-piperidin-3-yl]-5-(trifluoromethyl) pyrimidin-2-amine] |  | 5 to 50 nM | > 200 nM | > 1000 nM | > 2000 nM |
| CP(C)(=O)c1ccccc1Oc1nc(N[C@H]2CCCNC2)ncc1C(F)(F)F [CDK7_897, 4-[2-(dimethylphos-phoryl)phenoxy]-N-[(3S)-piperidin-3-yl]-5-(trifluoromethyl) pyrimidin-2-amine] |  |  | > 200 nM |  | > 2000 nM |
| FC(F)(F)c1cnc(N[C@H]2CCCNC2)nc1Oc1cccc2cccnc12 [CDK7_830, N-[(3S)-piperidin-3-yl]-4-(quinolin-8-yloxy)-5-(trifluoromethyl) pyrimidin-2-amine] |  |  |  | > 1000 nM | > 2000 nM |
| FC(F)(F)c1cnc(N[C@H]2CCCNC2)nc1Oc1cccc2c1NCCC2 [CDK7_829, N-[(3S)-piperidin-3-yl]-4-(1,2,3,4-tetrahydroquin-olin-8-yloxy)-5-(trifluoromethyl) pyrimidin-2-amine] |  |  |  | > 1000 nM | > 2000 nM |
| FC(F)(F)c1cnc(N[C@H]2CCCNC2)nc1-n1cnc2ccccc21 [CDK7_810, 4-(1H-1,3-benzodiazol-1-yl)-N-[(3S)-piperidin-3-yl]-5-(trifluoromethyl)py-rimidin-2-amine] |  | 5 to 50 nM | > 200 nM | > 1000 nM | > 2000 nM |
| CP(C)(=O)c1cccc(Nc2nc(N[C@H]3CCCNC3)ncc2C(F)(F)F)c1 [CDK7_888, N4-[3-(dimethylphos-phoryl)phenyl]-N2-[(3S)-piperidin-3-yl]-5-(trifluoromethyl) pyrimidine-2,4-diamine] |  | 5 to 50 nM | > 200 nM | > 1000 nM | > 2000 nM |
| FC(F)(F)c1cnc(N[C@H]2CCCNC2)nc1Cc1ccccc1 [CDK7_766, 4-benzyl-N-[(3S)-piperidin-3-yl]-5-(trifluoromethyl) pyrimidin-2-amine] |  | 50 to 200 nM | > 200 nM | > 1000 nM | > 2000 nM |
| NS(=O)(=O)c1cccc(Nc2nc(N[C@H]3CCCNC3)ncc2C(F)(F)F)c1 [CDK7_891, 3-[(2-{[(3S)-piperidin-3-yl]amino}-5-(trifluoromethyl)pyrimidin-4-yl)amino] benzene-1-sulfonamide] |  | 5 to 50 nM | > 200 nM | 100 to 1000 nM |  |
